From PubChem BioAssay (NCI) come the findings set out here.

Test systems include BT-549 breast; CAKI-1 renal; CCRF-CEM leukemia; HCT-116 colon; HOP-92 NSCLC; M14 melanoma; OVCAR-4 ovarian; SF-268 CNS; SNB-19 CNS; UACC-62 melanoma.
Holding throughout (assay): NCI-60 cell line screen, 48 h

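Assay format: 96-well plates, 48-hour exposure. GI50 marks 50% less growth. TGI: total growth inhibition.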 A value given as a limit tells only on which side of the number the result lay.

With `N#Cc1c(-c2ccccc2)nc2c(c(-c3ccccc3)nn2-c2ccccc2)c1-c1ccc(O)cc1`, the GI50 is 2 µM in the experiment with BT-549 breast; 2.48 µM in the experiment with CAKI-1 renal; 3.13 µM with CCRF-CEM leukemia; 2.63 µM with HCT-116 colon; 2.06 µM in the experiment with HOP-92 NSCLC; 2.27 µM in the experiment on M14 melanoma. Besides, the GI50 in the experiment with OVCAR-4 ovarian is 1.95 µM; with SF-268 CNS, 2.83 µM; with SNB-19 CNS, 1.9 µM; in the experiment with UACC-62 melanoma, 1.7 µM. The TGI came out at 4.45 µM in the experiment with BT-549 breast; 6.7 µM with CAKI-1 renal; 13.4 µM with CCRF-CEM leukemia; 7.32 µM with HCT-116 colon; 4.21 µM in the experiment with HOP-92 NSCLC; 5.48 µM with M14 melanoma. Moreover, the TGI is 4.66 µM in the experiment with OVCAR-4 ovarian, 9.14 µM with SF-268 CNS, 3.8 µM with SNB-19 CNS and 3.18 µM with UACC-62 melanoma.

Regarding `CCCNCc1cc(C)cc2c1nc(N1CCNCC1)n2Cc1cc(C)c(F)c(C)c1`, the GI50 was 12.3 µM in the experiment with BT-549 breast; 14.4 µM in the experiment on CAKI-1 renal; 2.2 µM with CCRF-CEM leukemia; 2.19 µM in the experiment with HCT-116 colon; 1.83 µM in the experiment on HOP-92 NSCLC; 1.86 µM in the experiment on M14 melanoma. Besides, the GI50 in the experiment on OVCAR-4 ovarian is 7.12 µM; in the experiment with SF-268 CNS, 5.11 µM; in the experiment on SNB-19 CNS, 2.41 µM; with UACC-62 melanoma it was 1.87 µM. Further, the TGI was 26.1 µM in the experiment with BT-549 breast; 27.6 µM with CAKI-1 renal; 4.71 µM with CCRF-CEM leukemia; 4.54 µM in the experiment with HCT-116 colon; 6.49 µM in the experiment on HOP-92 NSCLC; 3.47 µM in the experiment on M14 melanoma. The TGI amounted to 21.8 µM in the experiment with OVCAR-4 ovarian, 19.7 µM with SF-268 CNS, 7.18 µM in the experiment on SNB-19 CNS and 3.66 µM with UACC-62 melanoma.

For the compound `CCCCCCNc1nc(NCCCCCC)c2[nH]c(NCCCCCC)nc2n1`, the GI50 in the experiment with BT-549 breast was 7.47 µM; with CAKI-1 renal it was 16.2 µM; in the experiment on CCRF-CEM leukemia, 4.95 µM; in the experiment with HCT-116 colon it was 1.34 µM; in the experiment with HOP-92 NSCLC, 5.43 µM; in the experiment on M14 melanoma it was 14.1 µM. The GI50 in the experiment on OVCAR-4 ovarian is 6.97 µM; with SF-268 CNS it was 4.36 µM; in the experiment with SNB-19 CNS it was 15.5 µM; in the experiment on UACC-62 melanoma, 13.4 µM. Also, the TGI with BT-549 breast came out at 25.1 µM; in the experiment with CAKI-1 renal, 50.9 µM; with CCRF-CEM leukemia it was 35.6 µM; in the experiment with HCT-116 colon, 3.46 µM; with HOP-92 NSCLC, 16.9 µM; with M14 melanoma it was 27.9 µM. The TGI in the experiment on OVCAR-4 ovarian stood at 21.2 µM; with SF-268 CNS, 15.5 µM; in the experiment with SNB-19 CNS it was 29.5 µM; in the experiment on UACC-62 melanoma, 28.6 µM.

Turning to `CN(C)CCNC(=O)Nc1c(C#N)[n+]([O-])c2cc(Cl)c(Cl)cc2[n+]1[O-]`, the GI50 with BT-549 breast is 10.7 µM; with CAKI-1 renal it was 37.6 µM; with CCRF-CEM leukemia, 6.88 µM; in the experiment on HCT-116 colon, 13.4 µM; with HOP-92 NSCLC, 18.1 µM; with M14 melanoma it was 21.9 µM. Besides, the GI50 in the experiment on OVCAR-4 ovarian was 17.8 µM; with SF-268 CNS, 9.47 µM; in the experiment on SNB-19 CNS, 27.8 µM; in the experiment with UACC-62 melanoma, 10.2 µM. In addition, the TGI in the experiment with BT-549 breast was 39.8 µM; in the experiment on CAKI-1 renal it was greater than 100 µM; in the experiment with CCRF-CEM leukemia, greater than 100 µM; in the experiment with HCT-116 colon it was greater than 100 µM; with HOP-92 NSCLC, 99 µM; with M14 melanoma, greater than 100 µM. For the same compound, the TGI was greater than 100 µM in the experiment with OVCAR-4 ovarian, greater than 100 µM in the experiment on SF-268 CNS, greater than 100 µM with SNB-19 CNS and 66.5 µM in the experiment with UACC-62 melanoma.

`COC(=O)C(Cc1ccccc1)N/C=C\C(=O)c1ccc(Cl)cc1` (stereo not given): the GI50 was 28.1 µM in the experiment on BT-549 breast; 21.3 µM with CAKI-1 renal; 39.7 µM in the experiment with CCRF-CEM leukemia; 16.4 µM in the experiment on HCT-116 colon; 43.7 µM in the experiment with HOP-92 NSCLC; 19.1 µM in the experiment with M14 melanoma. Besides, the GI50 in the experiment on OVCAR-4 ovarian was 50.4 µM; in the experiment on SF-268 CNS, 31.6 µM; in the experiment on SNB-19 CNS it was 38 µM; with UACC-62 melanoma, 19.7 µM. Besides, the TGI was greater than 100 µM in the experiment with BT-549 breast; 44.4 µM in the experiment on CAKI-1 renal; greater than 100 µM in the experiment on CCRF-CEM leukemia; 36.9 µM in the experiment on HCT-116 colon; greater than 100 µM in the experiment with HOP-92 NSCLC; 44.7 µM in the experiment with M14 melanoma. Moreover, the TGI with OVCAR-4 ovarian was greater than 100 µM; with SF-268 CNS, 67.4 µM; in the experiment on SNB-19 CNS, greater than 100 µM; in the experiment with UACC-62 melanoma, 45.8 µM.

For `CCN(Cc1c(F)cccc1F)c1ccc(CO)c(Cl)c1`, the GI50 in the experiment on BT-549 breast was 16.5 µM; in the experiment on CAKI-1 renal, 0.167 µM; in the experiment with CCRF-CEM leukemia, 25.7 µM; with HCT-116 colon, 0.0291 µM; with HOP-92 NSCLC, 0.162 µM; with M14 melanoma, 19.4 µM. The GI50 with OVCAR-4 ovarian was 0.0429 µM; with SF-268 CNS, 24.8 µM; in the experiment with SNB-19 CNS, 24.4 µM; with UACC-62 melanoma, 0.0517 µM. Also, the TGI came out at 41.4 µM in the experiment with BT-549 breast; 1.77 µM in the experiment with CAKI-1 renal; 98.5 µM with CCRF-CEM leukemia; 12.8 µM with HCT-116 colon; 0.988 µM in the experiment with HOP-92 NSCLC; 48.1 µM in the experiment on M14 melanoma. The TGI was 0.319 µM in the experiment on OVCAR-4 ovarian, greater than 77.3 µM in the experiment with SF-268 CNS, greater than 100 µM with SNB-19 CNS and 0.325 µM in the experiment on UACC-62 melanoma.

With `COc1ccc(NC2=C(Br)C(=O)C(C)=C(C)C2=O)cc1`, the GI50 with BT-549 breast is 11.8 µM; with CAKI-1 renal, 1.72 µM; in the experiment on CCRF-CEM leukemia, 2.33 µM; in the experiment on HCT-116 colon it was 1.76 µM; in the experiment on HOP-92 NSCLC it was 1.55 µM; with M14 melanoma, 11.7 µM. Further, the GI50 in the experiment on OVCAR-4 ovarian is 1.6 µM; in the experiment with SF-268 CNS, 11.9 µM; in the experiment with SNB-19 CNS, 10.5 µM; in the experiment on UACC-62 melanoma, 7.74 µM. In addition, the TGI was 24.4 µM in the experiment on BT-549 breast; 3.11 µM with CAKI-1 renal; greater than 100 µM in the experiment with CCRF-CEM leukemia; 3.37 µM in the experiment on HCT-116 colon; 3.08 µM in the experiment on HOP-92 NSCLC; 24.8 µM in the experiment on M14 melanoma. The TGI with OVCAR-4 ovarian came out at 2.97 µM; in the experiment with SF-268 CNS it was 28.2 µM; in the experiment with SNB-19 CNS, 22.8 µM; in the experiment on UACC-62 melanoma it was 20.7 µM.
